Patent US9737525B2, “Small molecule activators of NRF2 pathway” (The General Hospital Corporation, priority 2013, dated 2017)

Tested on: primary neurons from HD140CAG mice
Test: ROS detection assay in primary neurons
Assay type: cell-based, mouse
Conditions: 0.1 μM and 0.25 μM, 4 days
Description: Elevated levels of reactive oxygen species (ROS) have been implicated in normal brain aging and in the pathogenesis of numerous neurodegenerative diseases, including HD. The neuroprotective properties of NRF2 activation have been reported to boost antioxidant defenses in astrocytes, but in this study it was determined whether NRF2 induction mediates protective antioxidant activity in mutant Htt expressing primary neurons. It was determined whether NRF2 activation could reduce mHtt associated ROS in primary neurons isolated from embryonic brains (E15-E17) of HD140CAG mice, which display strikingly elevated ROS levels compared to cells derived from wild type mice. HD and wild type neurons were treated with MIND4-17 at 0.1 μM and 0.25 μM doses for 4 days, and ROS were measured.
ROS detection in primary neurons was performed as previously described by [Valencia, 2013]. Briefly, neurons were plated on glass coverslips pretreated with poly-L-lysine for 24 hours. At 4 DIV wild type and HDQ140 neurons were treated with compound MIND4-17 at 4 DIV, then ROS were measured in live cells at 8 DIV. Prior to ROS measurements, neurons were loaded with […] of the non-fluorescent ROS-detector carboxy-DCFDA-AM (Invitrogen) for 15 min at 37° C. […] Images were acquired through a 60× oil immersion Nikon Apo objective DIC H (NA 1/4 1.4) and quantified using ImageJ software (NIH).

## O=[N+]([O-])c1ccc(Sc2nnc(COc3ccccc3)n2-c2ccccc2)nc1 [MIND4-17]
  Basal ROS levels in wild type neurons: No effects on basal ROS levels were detected
  ROS levels in HD neurons: significant reduction of ROS
